“And” between values parts separate entries of the source, which are not always exact repeats. Equal values may be shown once. ± gives the expanded uncertainty stated by the source.
Tests used:
[1] = Liquid; for mass density: Vibrating tube method
[2] = xn = mol fraction of the nth substance listed; settings: 101 kPa, Liquid, x2 = 0; for mass density: Vibrating tube method
[3] = 293.15 K, 101.33 kPa, Capillary tube (Ostwald / Ubbelohde) method
[4] = 303.15 K, 101.33 kPa, Capillary tube (Ostwald / Ubbelohde) method
[5] = 313.15 K, 101.33 kPa, Capillary tube (Ostwald / Ubbelohde) method
[6] = 323.15 K, 101.33 kPa, Capillary tube (Ostwald / Ubbelohde) method
[7] = 333.15 K, 101.33 kPa, Capillary tube (Ostwald / Ubbelohde) method

Row | Compound | viscosity ([1]; 293.15 K, 101 kPa) | mass density ([1]; 293.15 K, 101 kPa) [kg/m3] | viscosity [1, 3] [mPa·s] | mass density ([1]; 293.15 K, 101.33 kPa) [kg/m3] | viscosity ([1]; 303.15 K, 101 kPa) [mPa·s] | viscosity [1, 4] [mPa·s] | mass density ([1]; 303.15 K, 101.33 kPa) [kg/m3] | viscosity ([1]; 313.15 K, 101 kPa) [mPa·s] | viscosity [1, 5] [mPa·s] | mass density ([1]; 313.15 K, 101.33 kPa) [kg/m3] | viscosity ([1]; 323.15 K, 101 kPa) [mPa·s] | viscosity [1, 6] [mPa·s] | mass density ([1]; 323.15 K, 101.33 kPa) [kg/m3] | viscosity [1, 7] [mPa·s] | mass density ([1]; 333.15 K, 101.33 kPa) [kg/m3] | mass density ([2]; 293.15 K) [kg/m3] | viscosity ([2]; 293.15 K) [mPa·s] | mass density ([2]; 303.15 K) [kg/m3] | viscosity ([2]; 303.15 K) [mPa·s] | viscosity ([1]; 333.15 K, 101 kPa) | further results
1 | CC(C)CO [2-methyl-1-propanol] | 4.197 ± 0.23 mPa·s | 801.8 ± 0.2 | 4.085 ± 0.025 | 801.75 ± 0.24 | 2.873 ± 0.16 | 2.877 ± 0.018 | 793.99 ± 0.24 | 1.926 ± 0.11 | 2.091 ± 0.013 | 786.04 ± 0.24 | 1.232 ± 0.074 | 1.576 ± 0.01 | 777.85 ± 0.24 | 1.124 ± 0.007 | 769.36 ± 0.24 | – | – | – | – | 0.665 ± 0.044 mPa·s | –
2 | NCCCO [3-amino-1-propanol] | 40.45 ± 1.7 mPa·s and 40.46 ± 1.7 mPa·s | 987.65 ± 0.29 | 40.42 ± 0.2 | 987.55 ± 0.21 | 23.98 ± 1 | 23.87 ± 0.12 | 979.53 ± 0.22 | 15.31 ± 0.68 | 15.27 ± 0.078 | 971.47 ± 0.22 | 10.22 ± 0.48 | 10.22 ± 0.054 | 963.37 ± 0.22 | 7.123 ± 0.04 | 955.22 ± 0.22 | – | – | – | – | 6.961 ± 0.35 mPa·s and 6.962 ± 0.35 mPa·s | mass density ([1]; 303.15 K, 101 kPa): 979.65 ± 0.29 kg/m3; mass density ([1]; 313.15 K, 101 kPa): 971.61 ± 0.29 kg/m3; mass density ([1]; 323.15 K, 101 kPa): 963.52 ± 0.29 kg/m3; mass density ([1]; 333.15 K, 101 kPa): 955.38 ± 0.29 kg/m3

More lines, main results first:

Row | viscosity ([1]; 293.15 K, 101 kPa) | mass density ([1]; 293.15 K, 101 kPa) [kg/m3] | viscosity [1, 3] [mPa·s] | mass density ([1]; 293.15 K, 101.33 kPa) [kg/m3] | viscosity ([1]; 303.15 K, 101 kPa) [mPa·s] | viscosity [1, 4] [mPa·s] | mass density ([1]; 303.15 K, 101.33 kPa) [kg/m3] | viscosity ([1]; 313.15 K, 101 kPa) [mPa·s] | viscosity [1, 5] [mPa·s] | mass density ([1]; 313.15 K, 101.33 kPa) [kg/m3] | viscosity ([1]; 323.15 K, 101 kPa) [mPa·s] | viscosity [1, 6] [mPa·s] | mass density ([1]; 323.15 K, 101.33 kPa) [kg/m3] | viscosity [1, 7] [mPa·s] | mass density ([1]; 333.15 K, 101.33 kPa) [kg/m3] | mass density ([2]; 293.15 K) [kg/m3] | viscosity ([2]; 293.15 K) [mPa·s] | mass density ([2]; 303.15 K) [kg/m3] | viscosity ([2]; 303.15 K) [mPa·s] | Compound | viscosity ([1]; 333.15 K, 101 kPa) | further results
3 | – | – | – | – | – | – | – | – | – | – | – | – | – | – | – | 801.8 ± 0.2 | 4.197 ± 0.23 | 793.99 ± 0.24 | 2.873 ± 0.16 | CC(C)CO [2-methyl-1-propanol] + NCCCO | – | mass density ([2]; 313.15 K): 786.04 ± 0.24 kg/m3; viscosity ([2]; 313.15 K): 1.926 ± 0.11 mPa·s; mass density ([2]; 323.15 K): 777.85 ± 0.24 kg/m3; viscosity ([2]; 323.15 K): 1.232 ± 0.074 mPa·s; mass density ([2]; 333.15 K): 769.36 ± 0.24 kg/m3
4 | 2.318 ± 0.13 mPa·s | 785.36 ± 0.24 | 2.362 ± 0.015 | 785.25 ± 0.24 | 1.596 ± 0.094 | 1.769 ± 0.011 | 776.78 ± 0.24 | 0.996 ± 0.062 | 1.33 ± 0.0086 | 767.98 ± 0.24 | – | 1.014 ± 0.0068 | 758.82 ± 0.25 | – | 749.2 ± 0.25 | – | – | – | – | CC(C)O [propan-2-ol] | – | mass density ([1]; 303.15 K, 101 kPa): 776.87 ± 0.24 kg/m3; mass density ([1]; 313.15 K, 101 kPa): 768.07 ± 0.24 kg/m3; mass density ([1]; 323.15 K, 101 kPa): 758.89 ± 0.24 kg/m3; mass density ([1]; 333.15 K, 101 kPa): 749.25 ± 0.25 kg/m3
5 | – | – | – | – | – | – | – | – | – | – | – | – | – | – | – | 785.36 ± 0.24 | 2.318 ± 0.13 | 776.87 ± 0.24 | 1.596 ± 0.094 | CC(C)O [propan-2-ol] + NCCCO | – | mass density ([2]; 313.15 K): 768.07 ± 0.24 kg/m3; viscosity ([2]; 313.15 K): 0.996 ± 0.062 mPa·s; mass density ([2]; 323.15 K): 758.89 ± 0.24 kg/m3; mass density ([2]; 333.15 K): 749.25 ± 0.25 kg/m3
